Reference: patent US7981903B2, “2-[2-{phenylamino}-1H-pyrrolo[2,3-D]pyrimidin-4-yl)amino] benzamide derivatives as IGF-1R inhibitors for the treatment of cancer” (GlaxoSmithKline LLC, priority 2007, dated 2011)
pIC50: −log10 of the molar value. Values joined by “and” are separate entries in the source; they are usually repeats but may differ in a detail not shown here. Identical values can stand only once.

Legend:
[1] = target: T1, NIH-3T3 cells overexpressing human IR (Homo sapiens, UniProt P06213); experiment: IR cellular autophosphorylation (DELFIA); type: cell-based; conditions: 2 h compound, insulin 3 ug/ml for 15 minutes, IC50 category
T1 construct: expressed in transfected cells; host or cells: NIH-3T3 (mouse fibroblasts)
In short: (§1)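 Receptor autophosphorylation measured by DELFIA, capturing IGF-1R or IRβ and detecting with europium anti-pTyr, reported as percent of IGF-1- or insulin-stimulated signal. Compounds (30 uM to 1.5 nM) added 2 h before ligand, then 15 min stimulation (IGF-1 30 ng/ml or insulin 3 ug/ml).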

[2] = target: T2, NIH-3T3 cells overexpressing human IGF-1R (Homo sapiens, UniProt P08069); experiment: IGF-1R cellular autophosphorylation (DELFIA); type: cell-based
T2 construct: expressed in transfected cells; host or cells: NIH-3T3 (mouse fibroblasts)
In short: as §1

[3] = tested on: Colo205; experiment: Inhibition of cell proliferation (CellTiter-Glo or InCell analyzer), Colo205; type: cell-based; conditions: Homo sapiens, COLO 205, 72 h / 3 days, values given as IC50 category
In short: In one

[4] = target: T3, human IR (hIR) (Homo sapiens, UniProt P06213); experiment: TR-FRET kinase assay of purified hIR; type: biochemical; conditions: activated hIR 0.5 nM, 10 μM ATP, values given as pIC50 category
T3 construct: containing amino acid residues 979-1382 of human IR; made in house; host or cells: Sf9 cells (baculovirus), same process as hIGF1R
T3 sequence (P06213 979-1382): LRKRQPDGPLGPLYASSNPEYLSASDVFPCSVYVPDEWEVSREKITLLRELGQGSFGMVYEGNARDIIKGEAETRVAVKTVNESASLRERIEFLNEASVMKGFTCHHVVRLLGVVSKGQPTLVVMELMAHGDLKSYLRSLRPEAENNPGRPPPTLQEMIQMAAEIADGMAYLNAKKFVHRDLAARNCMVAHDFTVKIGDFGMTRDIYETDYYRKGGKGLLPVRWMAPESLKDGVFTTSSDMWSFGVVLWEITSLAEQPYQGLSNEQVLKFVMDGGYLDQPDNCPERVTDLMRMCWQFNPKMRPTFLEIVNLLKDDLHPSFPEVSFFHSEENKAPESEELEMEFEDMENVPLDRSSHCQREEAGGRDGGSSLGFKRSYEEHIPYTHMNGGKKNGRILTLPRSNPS

T1 sequence (P06213 28-1382): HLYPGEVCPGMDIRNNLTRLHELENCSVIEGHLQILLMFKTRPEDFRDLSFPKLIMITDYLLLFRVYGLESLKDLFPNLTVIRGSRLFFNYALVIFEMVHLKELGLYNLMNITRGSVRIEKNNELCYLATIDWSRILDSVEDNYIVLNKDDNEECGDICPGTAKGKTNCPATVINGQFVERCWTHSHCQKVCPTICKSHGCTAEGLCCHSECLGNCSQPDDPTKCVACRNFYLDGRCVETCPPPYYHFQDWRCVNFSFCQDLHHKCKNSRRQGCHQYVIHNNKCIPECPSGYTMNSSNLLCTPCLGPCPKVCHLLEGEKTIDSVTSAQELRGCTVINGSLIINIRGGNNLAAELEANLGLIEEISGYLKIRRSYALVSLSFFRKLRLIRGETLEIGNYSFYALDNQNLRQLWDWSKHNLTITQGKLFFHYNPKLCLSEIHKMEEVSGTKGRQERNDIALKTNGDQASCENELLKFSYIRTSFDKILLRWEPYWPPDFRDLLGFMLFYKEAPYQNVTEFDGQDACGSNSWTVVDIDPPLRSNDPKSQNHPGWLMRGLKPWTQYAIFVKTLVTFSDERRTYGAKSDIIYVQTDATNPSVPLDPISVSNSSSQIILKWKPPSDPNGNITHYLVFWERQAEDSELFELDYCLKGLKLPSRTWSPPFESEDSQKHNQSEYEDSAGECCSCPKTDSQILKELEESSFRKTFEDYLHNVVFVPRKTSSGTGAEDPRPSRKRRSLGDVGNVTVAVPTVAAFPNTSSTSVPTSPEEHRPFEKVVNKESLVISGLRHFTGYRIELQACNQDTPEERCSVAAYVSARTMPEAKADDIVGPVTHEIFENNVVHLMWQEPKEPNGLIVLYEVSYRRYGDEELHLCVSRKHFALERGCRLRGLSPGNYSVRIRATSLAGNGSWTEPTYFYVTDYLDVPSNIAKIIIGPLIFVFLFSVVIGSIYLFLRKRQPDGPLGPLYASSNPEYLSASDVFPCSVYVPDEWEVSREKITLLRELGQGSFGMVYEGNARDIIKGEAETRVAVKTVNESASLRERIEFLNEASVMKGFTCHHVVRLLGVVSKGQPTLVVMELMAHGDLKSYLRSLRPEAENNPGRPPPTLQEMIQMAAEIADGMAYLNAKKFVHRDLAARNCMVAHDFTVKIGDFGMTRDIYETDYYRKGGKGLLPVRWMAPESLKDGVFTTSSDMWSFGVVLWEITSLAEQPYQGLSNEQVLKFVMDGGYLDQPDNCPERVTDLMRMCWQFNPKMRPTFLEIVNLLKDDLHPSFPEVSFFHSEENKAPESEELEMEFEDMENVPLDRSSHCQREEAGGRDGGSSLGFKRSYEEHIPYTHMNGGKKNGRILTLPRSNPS
T2 sequence (P08069 31-1367): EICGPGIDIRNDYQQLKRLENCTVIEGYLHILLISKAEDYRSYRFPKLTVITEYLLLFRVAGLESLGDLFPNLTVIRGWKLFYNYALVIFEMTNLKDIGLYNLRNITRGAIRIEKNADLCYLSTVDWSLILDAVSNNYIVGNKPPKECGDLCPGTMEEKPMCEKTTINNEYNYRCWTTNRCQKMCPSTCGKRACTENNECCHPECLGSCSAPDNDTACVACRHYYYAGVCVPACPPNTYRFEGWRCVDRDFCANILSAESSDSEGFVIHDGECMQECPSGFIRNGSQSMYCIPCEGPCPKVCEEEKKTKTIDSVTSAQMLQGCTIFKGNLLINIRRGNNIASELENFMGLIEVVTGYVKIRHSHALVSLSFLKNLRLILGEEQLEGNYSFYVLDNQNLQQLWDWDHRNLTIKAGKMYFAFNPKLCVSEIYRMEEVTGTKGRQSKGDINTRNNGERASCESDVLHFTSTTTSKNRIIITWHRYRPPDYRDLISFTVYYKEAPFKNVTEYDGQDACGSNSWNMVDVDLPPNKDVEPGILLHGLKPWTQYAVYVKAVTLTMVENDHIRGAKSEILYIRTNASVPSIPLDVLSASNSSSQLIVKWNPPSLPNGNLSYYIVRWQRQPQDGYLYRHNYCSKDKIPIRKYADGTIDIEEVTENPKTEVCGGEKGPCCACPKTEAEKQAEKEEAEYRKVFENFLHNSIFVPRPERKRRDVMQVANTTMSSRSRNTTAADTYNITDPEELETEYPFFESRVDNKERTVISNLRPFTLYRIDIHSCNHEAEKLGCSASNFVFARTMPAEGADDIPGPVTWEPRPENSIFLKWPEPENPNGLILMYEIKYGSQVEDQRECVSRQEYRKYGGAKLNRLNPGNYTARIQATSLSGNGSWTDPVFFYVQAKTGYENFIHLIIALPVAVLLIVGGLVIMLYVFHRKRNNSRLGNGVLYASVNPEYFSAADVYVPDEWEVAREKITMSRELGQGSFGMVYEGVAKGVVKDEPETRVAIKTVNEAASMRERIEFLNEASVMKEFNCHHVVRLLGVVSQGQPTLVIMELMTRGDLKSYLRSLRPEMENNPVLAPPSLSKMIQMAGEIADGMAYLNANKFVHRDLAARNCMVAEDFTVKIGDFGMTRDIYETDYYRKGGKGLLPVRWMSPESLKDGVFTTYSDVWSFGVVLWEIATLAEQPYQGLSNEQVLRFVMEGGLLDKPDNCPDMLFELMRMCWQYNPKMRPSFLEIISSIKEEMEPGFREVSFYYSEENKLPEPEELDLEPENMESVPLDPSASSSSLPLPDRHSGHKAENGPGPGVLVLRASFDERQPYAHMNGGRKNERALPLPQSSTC

## CNC(=O)c1c(F)cccc1Nc1nc(Nc2cc3c(cc2OC)N(C(=O)CN(C)C)CC3)nc2[nH]ccc12 [Example 198, 2-[(2-{[1-(N,N-dimethylglycyl)-6-(methyloxy)-2,3-dihydro-1H-indol-5-yl]amino}-1H-pyrrolo[2,3-d]pyrimidin-4-yl)amino]-6-fluoro-N-methylbenzamide]
[1]
  pIC50: < 6.30
[2]
  pIC50: < 6.30
[3]
  pIC50: > 6.60
[4]
  pIC50: 8.40 to 8.90

## COc1cc(N2CCC(N3CC[C@@H](F)C3)CC2)ccc1Nc1nc(Nc2cccc(F)c2C(N)=O)c2cc[nH]c2n1 [Example 44, 2-fluoro-6-[(2-{[4-{4-[(3R)-3-fluoro-1-pyrrolidinyl]-1-piperidinyl}-2-(methyloxy)phenyl]amino}-1H-pyrrolo[2,3-d]pyrimidin-4-yl)amino]benzamide]
[1]
  pIC50: < 6.30
[2]
  pIC50: < 6.30
[3]
  pIC50: 6.00 to 6.60
[4]
  pIC50: 8.40 to 8.90

## COc1cc(N2CCC(N3CC[C@@H](F)C3)CC2)ccc1Nc1nc(Nc2cc(F)ccc2C(N)=O)c2cc[nH]c2n1 [Example 76, 4-fluoro-2-[(2-{[4-{4-[(3R)-3-fluoro-1-pyrrolidinyl]-1-piperidinyl}-2-(methyloxy)phenyl]amino}-1H-pyrrolo[2,3-d]pyrimidin-4-yl)amino]benzamide]
[1]
  pIC50: 6.30 to 7.00
[2]
  pIC50: > 7.00
[3]
  pIC50: 6.00 to 6.60
[4]
  pIC50: 9.00 to 9.60

## COc1cc(N2CCC(N3CCCC(F)(F)C3)CC2)ccc1Nc1nc(Nc2cc(F)ccc2C(N)=O)c2cc[nH]c2n1 [Example 77, 2-[(2-{[4-(3,3-difluoro-1,4′-bipiperidin-1′-yl)-2-(methyloxy)phenyl]amino}-1H-pyrrolo[2,3-d]pyrimidin-4-yl)amino]-4-fluorobenzamide]
[1]
  pIC50: > 7.00
[2]
  pIC50: 6.30 to 7.00
[3]
  pIC50: 6.00 to 6.60
[4]
  pIC50: 9.00 to 9.60

## COc1ccc(N2CCN(C(C)C)CC2)cc1Nc1nc(Nc2ccccc2C(N)=O)c2cc[nH]c2n1 [Example 10, 2-[(2-{[5-[4-(1-methylethyl)-1-piperazinyl]-2-(methyloxy)phenyl]amino}-1H-pyrrolo[2,3-d]pyrimidin-4-yl)amino]benzamide]
[1]
  pIC50: 6.30 to 7.00
[2]
  pIC50: 6.30 to 7.00
[3]
  pIC50: > 6.60
[4]
  pIC50: 8.40 to 8.90

## CCCN1CCC=C(c2ccc(Nc3nc(Nc4cc(F)ccc4C(=O)N[C@@H](C)CC)c4cc[nH]c4n3)c(OC)c2)C1 [Example 87, 4-fluoro-2-[(2-{[2-(methyloxy)-4-(1-propyl-1,2,5,6-tetrahydro-3-pyridinyl)phenyl]amino}-1H-pyrrolo[2,3-d]pyrimidin-4-yl)amino]-N-[(1S)-1-methylpropyl]benzamide]
[1]
  pIC50: < 6.30
[2]
  pIC50: < 6.30
[3]
  pIC50: 6.00 to 6.60
[4]
  pIC50: 8.40 to 8.90

## CNC(=O)c1c(F)cccc1Nc1nc(Nc2cc3c(cc2OC)CCCN3C(=O)CN(C)C)nc2[nH]ccc12 [Example 212, 2-[(2-{[1-(N,N-dimethylglycyl)-6-(methyloxy)-1,2,3,4-tetrahydro-7-quinolinyl]amino}-1H-pyrrolo[2,3-d]pyrimidin-4-yl)amino]-6-fluoro-N-methylbenzamide]
[1]
  pIC50: 6.30 to 7.00
[2]
  pIC50: 6.30 to 7.00
[3]
  pIC50: 6.00 to 6.60
[4]
  pIC50: 8.40 to 8.90

## COc1cc2c(cc1Nc1nc(Nc3cc(F)cc(F)c3C(=O)NCC(C)C)c3cc[nH]c3n1)N(C(=O)CN(C)C)CC2 [Example 154, 2-[(2-{[1-(N,N-dimethylglycyl)-5-(methyloxy)-2,3-dihydro-1H-indol-6-yl]amino}-1H-pyrrolo[2,3-d]pyrimidin-4-yl)amino]-4,6-difluoro-N-(2-methylpropyl)benzamide]
[1]
  pIC50: < 6.30
[2]
  pIC50: 6.30 to 7.00
[3]
  pIC50: < 6.00
[4]
  pIC50: 8.40 to 8.90

## CNC(=O)c1c(F)cccc1Nc1nc(Nc2cc3c(cc2OC)CCCN3C(=O)CN2CCCCC2)nc2[nH]ccc12 [Example 217, 2-fluoro-N-methyl-6-[(2-{[6-(methyloxy)-1-(1-piperidinylacetyl)-1,2,3,4-tetrahydro-7-quinolinyl]amino}-1H-pyrrolo[2,3-d]pyrimidin-4-yl)amino]benzamide]
[1]
  pIC50: > 7.00
[2]
  pIC50: > 7.00
[3]
  pIC50: 6.00 to 6.60
[4]
  pIC50: 8.40 to 8.90

## CNC(=O)c1c(F)cccc1Nc1nc(Nc2cc(NC(=O)CN(C)C)ccc2OC)nc2[nH]ccc12 [Example 245, 2-[(2-{[5-[(N,N-dimethylglycyl)amino]-2-(methyloxy)phenyl]amino}-1H-pyrrolo[2,3-d]pyrimidin-4-yl)amino]-6-fluoro-N-methylbenzamide]
[1]
  pIC50: < 6.30
[2]
  pIC50: < 6.30
[3]
  pIC50: 6.00 to 6.60
[4]
  pIC50: 9.00 to 9.60 and 8.40 to 8.90

## CCN(C)CC(=O)N1CCc2cc(OC)c(Nc3nc(Nc4cccc(F)c4C(N)=O)c4cc[nH]c4n3)cc21 [Example 166, 2-[(2-{[1-(N-ethyl-N-methylglycyl)-5-(methyloxy)-2,3-dihydro-1H-indol-6-yl]amino}-1H-pyrrolo[2,3-d]pyrimidin-4-yl)amino]-6-fluorobenzamide]
[1]
  pIC50: > 7.00
[2]
  pIC50: > 7.00
[3]
  pIC50: 6.00 to 6.60
[4]
  pIC50: 8.40 to 8.90

## COc1cc2c(cc1Nc1nc(Nc3cccc(F)c3C(N)=O)c3cc[nH]c3n1)N(C(=O)CN)CC2 [Example 141, 2-fluoro-6-[(2-{[1-glycyl-5-(methyloxy)-2,3-dihydro-1H-indol-6-yl]amino}-1H-pyrrolo[2,3-d]pyrimidin-4-yl)amino]benzamide]
[1]
  pIC50: < 6.30
[2]
  pIC50: < 6.30
[3]
  pIC50: 6.00 to 6.60
[4]
  pIC50: 8.40 to 8.90

## COc1cc(N2CCN(C(C)C)CC2)ccc1Nc1nc(Nc2ccc(F)c(F)c2C(N)=O)c2cc[nH]c2n1 [Example 94, 2,3-difluoro-6-[(2-{[4-[4-(1-methylethyl)-1-piperazinyl]-2-(methyloxy)phenyl]amino}-1H-pyrrolo[2,3-d]pyrimidin-4-yl)amino]benzamide]
[1]
  pIC50: 6.30 to 7.00
[2]
  pIC50: 6.30 to 7.00
[3]
  pIC50: > 6.60
[4]
  pIC50: 8.40 to 8.90

## COc1cc(N2CCC(N3CCN(S(C)(=O)=O)CC3)CC2)ccc1Nc1nc(Nc2cccc(F)c2C(N)=O)c2cc[nH]c2n1 [Example 113, 2-fluoro-6-({2-[(2-(methyloxy)-4-{4-[4-(methylsulfonyl)-1-piperazinyl]-1-piperidinyl}phenyl)amino]-1H-pyrrolo[2,3-d]pyrimidin-4-yl}amino)benzamide]
[1]
  pIC50: 6.30 to 7.00
[2]
  pIC50: > 7.00
[3]
  pIC50: > 6.60
[4]
  pIC50: 9.00 to 9.60

## COc1cc(N2CCC[C@H](O)C2)ccc1Nc1nc(Nc2cc(F)ccc2C(N)=O)c2cc[nH]c2n1 [Example 74, 4-fluoro-2-[(2-{[4-[(3S)-3-hydroxy-1-piperidinyl]-2-(methyloxy)phenyl]amino}-1H-pyrrolo[2,3-d]pyrimidin-4-yl)amino]benzamide]
[1]
  pIC50: 6.30 to 7.00
[2]
  pIC50: 6.30 to 7.00
[3]
  pIC50: > 6.60
[4]
  pIC50: 9.00 to 9.60

## COc1cc(N2CCN(C(C)=O)CC2)ccc1Nc1nc(Nc2cc(F)c(F)cc2C(N)=O)c2cc[nH]c2n1 [Example 103, 2-[(2-{[4-(4-acetyl-1-piperazinyl)-2-(methyloxy)phenyl]amino}-1H-pyrrolo[2,3-d]pyrimidin-4-yl)amino]-4,5-difluorobenzamide]
[1]
  pIC50: 6.30 to 7.00
[2]
  pIC50: > 7.00
[3]
  pIC50: > 6.60
[4]
  pIC50: 9.00 to 9.60

## CCCN1CCC(COc2ccc(Nc3nc(Nc4cccc(F)c4C(N)=O)c4cc[nH]c4n3)c(OC)c2)CC1 [Example 206, 2-fluoro-6-({2-[(2-(methyloxy)-4-{[(1-propyl-4-piperidinyl)methyl]oxy}phenyl)amino]-1H-pyrrolo[2,3-d]pyrimidin-4-yl}amino)benzamide]
[1]
  pIC50: 6.30 to 7.00
[2]
  pIC50: 6.30 to 7.00
[3]
  pIC50: 6.00 to 6.60
[4]
  pIC50: 8.40 to 8.90

## Cc1cc2c(cc1Nc1nc(Nc3cccc(F)c3C(N)=O)c3cc[nH]c3n1)N(C(=O)CN(C)C)CCC2 [Example 246, 2-[(2-{[1-(N,N-dimethylglycyl)-6-methyl-1,2,3,4-tetrahydro-7-quinolinyl]amino}-1H-pyrrolo[2,3-d]pyrimidin-4-yl)amino]-6-fluorobenzamide]
[1]
  pIC50: 6.30 to 7.00
[2]
  pIC50: 6.30 to 7.00
[3]
  pIC50: 6.00 to 6.60
[4]
  pIC50: 9.00 to 9.60 and 8.40 to 8.90
